# Reference: patent US20030055106A1, “Therapeutic uses of peroxometallic compounds” (priority 1999, published 2003)
# Experiments:
# Leishmania major = test: Leishmania vaccination trial (adjuvant); set-up: species or system BALB/c mice; conditions: in vivo, Leishmania infection
# Experimental: FIG. 10: Use of bpV(phen) as an adjuvant in Leishmania vaccination trial. BALB/c mice were inoculated with soluble Leishmania major antigen (SLA; 100 μg) with or without daily injection of bpV(phen) ([…]) for 5 days. Two weeks later animals received a second set of treatment as above. Control animals received either PBS or bpV(phen) alone without any SLA. At 4 weeks post-vaccination, animals were challenged with 5 million Leishmania major stationary phase promastigotes injected in the right hind footpad. Progression of infection was followed by measuring footpad thickness with a caliper on a weekly basis. Differences measured for reduced footpad thickness were significant (p<0.01, Student's t test, n=5-10 animals per group) over their respective controls.
# In the past, use of total and soluble Leishmania antigen (SLA) for vaccination has been reported and permitted some levels of protection against infectious challenges (85). Using a murine model, we have tested whether bpV(phen)-modulated cytokine and chemokine generation (as reported above) in combination with SLA administration could lead to protection against Leishmania infection. Mice have received PBS and bpv(phen) as controls, and SLA (100 μg) with or without daily bpV(phen) injection (500 nM, 5 days). All injections were done intra-peritoneally. […]
# [1] = tested on: ZR-75 breast cancer cells; test: In vitro collagen-fibrin tumor progression model, ZR-75; type: cell-based, human
# Excerpt: FIG. 12: Illustration of the antitumor activity of bpV(phen) in vitro using ZR-75 breast cancer cells. Experiments were done as described for the FIG. 11 except that DMEM medium having a high glucose concentration and without phenol red was used. 10% FBS was used instead of 5% FBS. The media was supplemented with 10^−9 M estradiol (final concentration).
# The cells embedded in the collagen gel, grew as a “primary tumor”. Some cells migrated from the primary tumor towards the fibrin gel, forming front edges. […] Their extension and numbers are representative of the invasive potential of the cancer cells.
smiles,measurement,setting,value
"O.O.O.OO.OO.[K+].[OH-].[V].c1cnc2c(c1)ccc1cccnc12 [bpV(phen), potassium bisperoxo(1,10-phenanthroline)oxovanadate]",protection against infectious challenge (adjuvant potential),Leishmania major,complete protection
same,progression of ZR-75-1 cells (primary and secondary tumors),[1]; 2 μM,restricted the growth of the primary tumor
same,progression of ZR-75-1 cells (primary and secondary tumors),[1]; 5 and 10 μM,there were no secondary tumors and the primary tumor had a lower cell density
